Twelve compounds from ChEMBL document CHEMBL1201862, “PubChem BioAssay data set” (2004) can be followed below.

Structures are written as SMILES.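 Protocol summary: plate cells (96-well), add compound at 5 concentrations, incubate 48 h, interpolate endpoints linearly. GI50 = concentration required for 50% inhibition of growth.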 Activity calls are given as the source filed them. Cut-off read from the data, not from the text of the source: active = GI50 up to about 1.1 µM and inactive = higher.

Among the test systems are A549; EKVX; HCT-116; HCT-15; HOP-92; IGROV-1; MCF7; MDA-MB-435; MDA-N; MOLT-4; NCI-H460; NCI-H522; OVCAR-4; SK-MEL-2; SK-MEL-5; SNB-19; SR.
Test in all cases: NCI anticancer screen, dose series, 48 h

In the case of `Cc1ccc(-c2nc3cc(F)c(N4CCN(C)CC4)cc3[nH]2)cc1`, the GI50 in the assay with A549 is 19.1 µM (inactive); in the assay with EKVX, 23.1 µM (inactive); in the assay on HCT-116 it was 19.6 µM (inactive); in the assay on HCT-15 it was 6.32 µM; in the assay with HOP-92, 66.5 µM (inactive); in the assay on IGROV-1 it was 22.7 µM (inactive). Besides, the GI50 is 15.3 µM (inactive) in the assay on MCF7; 22.4 µM (inactive) with MDA-MB-435; 32.4 µM (inactive) in the assay on MDA-N; 22.8 µM (inactive) with MOLT-4; 16.9 µM (inactive) with NCI-H460; 14.5 µM (inactive) in the assay with NCI-H522. The GI50 is 17.1 µM (inactive) with OVCAR-4; 17.1 µM (inactive) in the assay on SK-MEL-2; 11.4 µM (inactive) in the assay with SK-MEL-5; 22 µM (inactive) in the assay on SNB-19; 32.6 µM (inactive) in the assay with SR.

As to `Cc1ccc(-c2ccc(Nc3c4ccccc4nc4ccccc34)cc2)cn1`, the GI50 was 2.3 µM (inactive) in the assay on A549; 6.64 µM (inactive) in the assay with EKVX; 2.91 µM (inactive) in the assay with HCT-116; 3.75 µM in the assay on HCT-15; 0.322 µM (active) in the assay on HOP-92; 5.43 µM (inactive) with IGROV-1. Also, the GI50 with MCF7 is 2.26 µM (inactive); in the assay on MDA-MB-435, 4.43 µM (inactive); with MDA-N it was 6.07 µM (inactive); in the assay with MOLT-4 it was 1.03 µM (active); in the assay with NCI-H460, 1.44 µM (inactive); with NCI-H522, 2.83 µM (inactive). Further, the GI50 in the assay on SK-MEL-2 is 1.87 µM (inactive); with SK-MEL-5, 4.41 µM (inactive); in the assay on SNB-19, 5.86 µM (inactive); in the assay with SR it was 2.07 µM (inactive).

As to `O=c1oc2ccc([N+](=O)[O-])cc2c(Nc2ccc3c(c2)Oc2ccccc2O3)c1[N+](=O)[O-]`, the GI50 in the assay on A549 was 32.1 µM (inactive); in the assay on EKVX it was 31.6 µM (inactive); in the assay with HCT-116, 29 µM (inactive); with HCT-15, 31.1 µM; in the assay with HOP-92, 19.2 µM (inactive); with IGROV-1, 28.6 µM (inactive). Moreover, the GI50 in the assay with MCF7 is 26.5 µM (inactive); in the assay on MDA-MB-435 it was 37.1 µM (inactive); in the assay on MDA-N, 36.2 µM (inactive); in the assay on NCI-H460, 30 µM (inactive); in the assay with NCI-H522, 35.5 µM (inactive); in the assay on OVCAR-4 it was 42 µM (inactive). Besides, the GI50 in the assay on SK-MEL-2 was 21.3 µM (inactive); in the assay with SK-MEL-5, 29.1 µM (inactive); in the assay on SNB-19, 28.6 µM (inactive); with SR, 31 µM (inactive).

Regarding `CCCCCC(C(O)C#N)C(O)(C(F)(F)F)C(F)(F)F` (centres undefined), the GI50 in the assay with A549 is > 10 µM (inactive); in the assay on HCT-116, > 10 µM (inactive); in the assay with HCT-15, over 10 µM; in the assay on HOP-92, > 10 µM (inactive); with IGROV-1, > 10 µM (inactive); with MCF7, > 10 µM (inactive). Besides, the GI50 with MDA-MB-435, with MDA-N, in the assay with MOLT-4, with NCI-H522, with OVCAR-4 and in the assay on SK-MEL-5 was > 10 µM (inactive) each time. Besides, the GI50 in the assay on SNB-19 and with SR was > 10 µM (inactive) throughout.

Take `CCCCC(=O)Oc1ccc2c(C)cc(=O)oc2c1`: the GI50 with A549 was > 100 µM (inactive); in the assay with EKVX, > 100 µM (inactive); in the assay on HCT-116, > 100 µM (inactive); with HOP-92 it was 26.2 µM (inactive); with IGROV-1, > 100 µM (inactive); in the assay on MCF7, > 100 µM (inactive). Besides, the GI50 in the assay with MDA-MB-435, with MDA-N, with MOLT-4, in the assay on NCI-H460, in the assay on NCI-H522 and with OVCAR-4 was > 100 µM (inactive) in each case. Also, the GI50 in the assay on SK-MEL-2, with SK-MEL-5, in the assay with SNB-19 and with SR was > 100 µM (inactive) in each case.

In the case of `COc1cccc(C2c3cc4c(cc3OC(NNS(=O)(=O)c3ccc(C)cc3)C2C)OCO4)c1O` (centres undefined), the GI50 with A549 was 18.6 µM (inactive); in the assay on EKVX, 20.2 µM (inactive); in the assay with HCT-116, 15.3 µM (inactive); in the assay on HCT-15, 23.5 µM; in the assay with HOP-92 it was 33.8 µM (inactive); with IGROV-1 it was 26.9 µM (inactive). Moreover, the GI50 in the assay with MCF7 is 18.7 µM (inactive); in the assay with MDA-MB-435, 23.4 µM (inactive); in the assay with MDA-N, 24.5 µM (inactive); in the assay on MOLT-4 it was 10.7 µM (inactive); with NCI-H460, 21.8 µM (inactive); in the assay on NCI-H522 it was 11.4 µM (inactive). Also, the GI50 in the assay on SK-MEL-2 was 17.4 µM (inactive); in the assay on SK-MEL-5 it was 20.4 µM (inactive); in the assay with SNB-19, 28.3 µM (inactive); with SR it was 6.79 µM (inactive).

Turning to `O=C(NC(=S)Nc1ccc(Br)cc1)c1ccc2c(c1)Sc1ccccc1O2`, the GI50 with A549 was > 100 µM (inactive); in the assay on HCT-116, > 100 µM (inactive); with HCT-15, over 100 µM; in the assay with HOP-92, 22.5 µM (inactive); in the assay on IGROV-1 it was 49.3 µM (inactive); with MCF7 it was > 100 µM (inactive). Besides, the GI50 in the assay with MDA-MB-435, in the assay with MDA-N, in the assay on MOLT-4, with NCI-H460, in the assay with NCI-H522 and in the assay on SK-MEL-2 was > 100 µM (inactive) throughout. In addition, the GI50 is > 100 µM (inactive) in the assay with SK-MEL-5, 39.3 µM (inactive) in the assay on SNB-19 and 36.6 µM (inactive) in the assay on SR.

Take `CCCCCCCC(CC(=O)NC(CO)C(=O)NC(CO)CC(C)C)OC(=O)CC(CCCCCCC)OC(=O)CC(CCCCCCC)OC1OC(C)C(O)C(OC2OC(C)C(OC(C)=O)C(O)C2O)C1O` (centres undefined): the GI50 in the assay on A549 is 11.2 µM (inactive); in the assay on EKVX it was 14.9 µM (inactive); in the assay on HCT-116, 4.84 µM (inactive); in the assay with HOP-92, 8.91 µM (inactive); in the assay on IGROV-1, 10.7 µM (inactive); in the assay with MCF7, 11.1 µM (inactive). For the same compound, the GI50 in the assay on MDA-MB-435 is 6.53 µM (inactive); in the assay with MDA-N, 3.4 µM (inactive); in the assay with MOLT-4, 2.38 µM (inactive); in the assay on NCI-H460 it was 3.97 µM (inactive); in the assay on NCI-H522 it was 11.7 µM (inactive); in the assay on OVCAR-4, 5.01 µM (inactive). Besides, the GI50 in the assay with SK-MEL-5 is 10 µM (inactive); with SNB-19 it was 5.27 µM (inactive); in the assay on SR, 2.55 µM (inactive).

As for `Cc1c(N2C(=O)/C(=C/c3ccc(N(CCC#N)CCC#N)cc3)N=C2c2ccccc2)c(=O)n(-c2ccccc2)n1C`, the GI50 in the assay with A549 was > 100 µM (inactive); in the assay on EKVX, > 100 µM (inactive); in the assay with HCT-116 it was > 100 µM (inactive); in the assay on HCT-15 it was 70 µM; in the assay on HOP-92 it was > 100 µM (inactive); in the assay with IGROV-1, > 100 µM (inactive). The GI50 was > 100 µM (inactive) in the assay with MCF7; > 100 µM (inactive) in the assay on MDA-MB-435; > 100 µM (inactive) in the assay with MDA-N; 75.7 µM (inactive) with MOLT-4; > 100 µM (inactive) in the assay on NCI-H460; > 100 µM (inactive) in the assay with OVCAR-4. Moreover, the GI50 with SK-MEL-2, in the assay with SK-MEL-5, with SNB-19 and in the assay on SR was > 100 µM (inactive) each time.

For the compound `O=C1c2ccccc2C(=O)c2sc(Nc3ccccc3C(F)(F)F)nc21`, the GI50 was 21.2 µM (inactive) in the assay with A549; 18.2 µM (inactive) in the assay with EKVX; 28.6 µM (inactive) in the assay on HCT-116; 7.29 µM in the assay on HCT-15; 10.6 µM (inactive) in the assay with HOP-92; 12.5 µM (inactive) in the assay on IGROV-1. The GI50 in the assay with MCF7 is 16.4 µM (inactive); in the assay with MDA-MB-435, 4.82 µM (inactive); in the assay on MDA-N, 12.5 µM (inactive); in the assay with MOLT-4, 3.45 µM (inactive); with NCI-H460, 21.8 µM (inactive); in the assay on NCI-H522 it was 8.15 µM (inactive). Further, the GI50 is 11.6 µM (inactive) in the assay on SK-MEL-2, 8.05 µM (inactive) in the assay with SK-MEL-5, 21.5 µM (inactive) with SNB-19 and 4.16 µM (inactive) with SR.

Take `C#CC1(O)CCCCCCCCC2(CCCCCCCC1)OCCO2`: the GI50 in the assay with A549 was 13.9 µM (inactive); with EKVX it was 18.4 µM (inactive); in the assay with HCT-116, 16.5 µM (inactive); in the assay with HCT-15, 18 µM; with HOP-92, 17.4 µM (inactive); in the assay on IGROV-1 it was 16.7 µM (inactive). Besides, the GI50 was 20.3 µM (inactive) in the assay on MCF7; 19.4 µM (inactive) with MDA-MB-435; 20.9 µM (inactive) with MDA-N; 21.3 µM (inactive) with NCI-H460; 2.56 µM (inactive) with NCI-H522; 4.81 µM (inactive) in the assay with OVCAR-4. The GI50 with SK-MEL-2 is 13.7 µM (inactive); in the assay on SK-MEL-5, 19.2 µM (inactive); in the assay with SNB-19, 18.9 µM (inactive); with SR, 12.3 µM (inactive).

In the case of `COc1ccc(/C=N/NS(=O)(=O)c2ccc(/C=C3\NC(=O)N(C)C3=O)cc2)cc1`, the GI50 with A549 is > 100 µM (inactive); in the assay with EKVX, 89.9 µM (inactive); in the assay on HCT-116, > 100 µM (inactive); in the assay on HCT-15, over 100 µM; with HOP-92 it was 58.7 µM (inactive); in the assay with IGROV-1, 43.6 µM (inactive). Also, the GI50 in the assay on MCF7 was 40.9 µM (inactive); in the assay on MDA-MB-435, > 100 µM (inactive); in the assay with MDA-N, > 100 µM (inactive); in the assay with MOLT-4, 63.5 µM (inactive); in the assay with NCI-H460, 37.5 µM (inactive); in the assay with OVCAR-4, 43.9 µM (inactive). Further, the GI50 is > 100 µM (inactive) with SK-MEL-2, > 100 µM (inactive) in the assay with SK-MEL-5, 80.9 µM (inactive) with SNB-19 and > 100 µM (inactive) in the assay on SR.
